One test concerns male ICR mice. The test is described as follows: MES test (anti-epilepsy activity), mice, oral (mMES po). Format: in vivo. The following applies: Mus musculus; for ED50: mice, at peak time; for responders at 50 mg/kg: injection amount 50 mg/kg; for responders at 100 mg/kg: injection amount 100 mg/kg; for responders at 80 mg/kg: injection amount 80 mg/kg. The procedure: (§1) Biological Experimental Example. 1: Measurement of Anti-Epilepsy Activity (MES-Test)
(§2) In the MES test (Ref., G. Villetti et al. Neuropharmacology 40(2001) 866-878), an electrical stimulus (mice: 50 mA, 60 Hz, 0.2 sec, and rats: 150 mA, 60 Hz, 0.2 sec in the test animal) supplied by an 11 A Shocker (IITC Life Science Company) was delivered through corneal electrodes. All mice or rats assigned to any electroshock at peak time were treated with each test compound sample which was dissolved in 20% tween 80 prepared by saline solvent applied orally before the test. […] Three doses of the test sample were administered orally to 9-18 animals (3-6 mice per dose) for evaluating the respective doses at which 50% of the animals were protected from seizure (ED50). The ED50 value (median effective close) was calculated by Litchfield and Wicoxon log-probit method which is a dose-response relationship. Experimental animals, male ICR mice and male SD rats, were purchased from OrientBio, Samtako, or Nara Biotech, Korea, and housed in cages (4-5 mice or 3 rats per cage) for 4-5 days. The range of mice body weight was between 19 and 25 grams and range of rats body weight was between 100 and 130 grams.
(§3) The obtained results are shown as mean±sem. The difference between the groups was statistically analyzed by ANOVA, and then further examined by Dunnett's test or Bonferroni test. If p is less than 0.05, it was determined that the difference between the groups had statistical significance.
(§4) The results of anti-epileptic activity of the sulfamate derivative compounds measured in the above Experimental Example are shown in the following Tables 4 and 5.

Another test concerns male SD rats. The test is described as follows: MES test (anti-epilepsy activity), rats, oral (rMES po). The following applies: for ED50: Rattus norvegicus, rats, at peak time; for rMES(po) Protection %: 3 rats. It counts as in vivo. Here is the method:
as §1, §2, §3, §4

[1] abbreviates: 3 mice, read-out: mMES(po) Protection %.

Read-outs that look alike come from different tables or passages of the source. Marks after values point to notes of the source that are not given here.

For the compound `Nc1ccccc1[C@@H]1OC2(CCCC2)O[C@H]1COS(N)(=O)=O` [Example 72, ((2S, 3S)-3-(2-aminophenyl)-1,4-dioxaspiro[4,4]nonan-2-yl)methyl sulfamate], the ED50 in the test on male ICR mice was determined as 14.2 mg/kg; with male SD rats, 1 mg/kg. Take `CC1(C)O[C@@H](COS(N)(=O)=O)[C@H](c2ccccc2F)O1` [Example 16, ((4S, 5S)-5-(2-fluorophenyl)-2,2-dimethyl-1,3-dioxolan-4-yl)methyl sulfamate]: in the test on male ICR mice (setting [1]), the responders at 50 mg/kg came out at 100%. In the test with male SD rats, the ED50 was found to be 7.7 mg/kg. The matching figures for `CC1(C)OC(COS(N)(=O)=O)C(c2ccccc2Cl)O1` (mixture of isomers) [Example 4, (5-(2-chlorophenyl)-2,2-dimethyl-1,3-dioxolan-4-yl)methyl sulfamate(SR & RS mixture)]: 33% and 5.2 mg/kg. In the case of `CC1(C)O[C@@H](COS(=O)(=O)[NH][Na])[C@H](c2ccccc2N)O1` [Example 66], the ED50 with male ICR mice was 12.3 mg/kg; with male SD rats, 11.8 mg/kg. With `CC1(C)O[C@H](c2sc(Cl)nc2Cl)[C@@H](COS(N)(=O)=O)O1` [Example 163, ((4R, 5S)-5-(2,4-dichlorothiazol-5-yl)-2,2-dimethyl-1,3-dioxolan-4-yl)methyl sulfamate], the responders at 50 mg/kg with male ICR mice (4 mice, read-out: mMES(po) Protection %) is 50%. In the test on male SD rats, this compound gave an ED50 of 6.5 mg/kg. Consider `Cc1nc(Cl)sc1[C@H]1OC(C)(C)O[C@@H]1COS(N)(=O)=O` [Example 169, ((4R, 5S)-2,2-dimethyl-5-(2-chloro-4-methylthiazol-5-yl)-1,3-dioxolan-4-yl)methylsulfamate], for which the responders at 30 mg/kg in the test on male ICR mice (injection amount 30 mg/kg, 3 mice, read-out: mMES(po) Protection %) amounted to 100%. Further, the “rMES(po) Protection %” value in the test with male SD rats (injection amount 15 mg/kg) was 15^a (100%).

Turning to `CC1(C)O[C@@H](COS(N)(=O)=O)[C@H](c2sc(Cl)nc2Cl)O1` [Example 164, ((4S, 5R)-5-(2,4-dichlorothiazol-5-yl)-2,2-dimethyl-1,3-dioxolan-4-yl)methyl sulfamate], in the test with male ICR mice (setting [1]), the responders at 50 mg/kg was 100%. Further, the 50% effect level in the test with male SD rats (ED50) was put at a dose of 13.2 mg/kg. Regarding `CC1(C)O[C@@H](COS(N)(=O)=O)[C@H](c2cnc(Cl)s2)O1` [Example 166, ((4R, 5S)-5-(2-chlorothiazol-5-yl)-2,2-dimethyl-1,3-dioxolan-4-yl)methylsulfamate], the responders at 100 mg/kg in the test with male ICR mice (setting [1]) was found to be 100%. Also, in the test on male SD rats, the 50% effect level (ED50) was put at a dose of 1.9 mg/kg. As for `CC1(C)O[C@@H](COS([NH-])(=O)=O)[C@H](c2ccccc2Cl)O1.[Na+]` [Example 177, sodium ((((4S,5S)-5-(2-chlorophenyl)-2,2-dimethyl-1,3-dioxolan-4-yl)methoxy)sulfonyl)amide], in the test on male SD rats (injection amount 3.5 mg/kg), the “rMES(po) Protection %” value is listed as 3.5^a (100%). As to `NS(=O)(=O)OC[C@@H]1OC(=O)O[C@H]1c1ccccc1[N+](=O)[O-]` [Example 90, ((4S, 5S)-5-(2-nitrophenyl)-2-oxo-1,3-dioxolan-4-yl)methyl sulfamate], the ED50 in the test on male ICR mice was determined as 9.2 mg/kg; in the test on male SD rats, 1.1 mg/kg.

As to `CC1(C)O[C@H](c2cnc(Cl)s2)[C@@H](COS(N)(=O)=O)O1` [Example 165, ((4R, 5S)-5-(2-chlorothiazol-5-yl)-2,2-dimethyl-1,3-dioxolan-4-yl)methylsulfamate], in the test with male ICR mice (setting [1]), the responders at 100 mg/kg is 100%. With `NS(=O)(=O)OC[C@H]1OC2(CCCCC2)O[C@@H]1Cc1ccccc1` [Example 128, ((2R, 3R)-3-benzyl-1,4-dioxaspiro[4,5]decan-2-yl)methyl sulfamate], the responders at 50 mg/kg in the test on male ICR mice (setting [1]) stood at 100%. In the case of `CC1(C)O[C@@H](CCOS(N)(=O)=O)[C@H](c2ccccc2)O1` [Example 130, 2-((4S, 5S)-5-phenyl-2,2-dimethyl-1,3-dioxolan-4-yl)ethyl sulfamate], in the test with male ICR mice (setting [1]), the responders at 50 mg/kg is 33.3%. On the same count and under the same terms, under `CCC1(CC)O[C@@H](COS(N)(=O)=O)[C@H](c2ccccc2)O1` [Example 108, ((4S, 5S)-5-phenyl-2,2-diethyl-1,3-dioxolan-4-yl)methyl sulfamate] stands 100%.

For the compound `NS(=O)(=O)OCC[C@H]1OC2(CCCCC2)O[C@@H]1Cc1ccccc1` [Example 120, 2-((2R, 3R)-3-benzyl-1,4-dioxaspiro[4,5]decane-2-yl)ethyl sulfamate], in the test on male ICR mice (setting [1]), the responders at 80 mg/kg was found to be 66.6%. For the compound `NS(=O)(=O)OC[C@H]1OC2(CCCC2)O[C@@H]1Cc1ccccc1` [Example 126, ((2R, 3R)-3-benzyl-1,4-dioxaspiro[4,4]nonan-2-yl)methyl sulfamate], in the test on male ICR mice (setting [1]), the responders at 50 mg/kg was found to be 100%. Take `CC1(C)OC(COS(N)(=O)=O)C(c2cnccc2Cl)O1` (centres unmarked) [Example 174, (5-(4-chloropyridin-3-yl)-2,2-dimethyl-1,3-dioxolan-4-yl)methylsulfamate]: the responders at 100 mg/kg in the test with male ICR mice (setting [1]) was determined as 100%. `CC1(C)O[C@@H](CCOS(N)(=O)=O)[C@H](c2ccccc2Cl)O1` [Example 154, 2-((4S, 5S)-5-(2-chlorophenyl)-2,2-dimethyl-1,3-dioxolan-4-yl)ethyl sulfamate]: the responders at 50 mg/kg in the test on male ICR mice (setting [1]) was determined as 100%. Consider `CC1(C)O[C@@H](COS(N)(=O)=O)[C@H](c2ccc(Cl)s2)O1` [Example 172, ((4S, 5R)-2,2-dimethyl-5-(5-chlorothiophen-2-yl)-1,3-dioxolan-4-yl)methylsulfamate], for which the ED50 is 30.2 mg/kg in the test with male ICR mice and 4.7 mg/kg in the test on male SD rats. Regarding `CC1(C)O[C@H](CCOS(N)(=O)=O)[C@@H](Cc2ccccc2Cl)O1` [Example 138, 2-((4R, 5R)-5-(2-chlorobenzyl)-2,2-dimethyl-1,3-dioxolan-4-yl)ethyl sulfamate], in the test with male ICR mice (setting [1]), the responders at 80 mg/kg amounted to 33.3%.

As to `NS(=O)(=O)OC[C@H]1OC2(CCCC2)O[C@@H]1Cc1ccccc1Cl` [Example 150, ((2R, 3R)-3-(2-chlorobenzyl)-1,4-dioxaspiro[4,4]nonan-2-yl)methyl sulfamate], the responders at 50 mg/kg in the test on male ICR mice (setting [1]) came to 100%. For `NS(=O)(=O)OCC[C@H]1OC2(CCCCC2)O[C@@H]1Cc1ccccc1Cl` [Example 144, 2-((2R, 3R)-3-(2-chlorobenzyl)-1,4-dioxaspiro[4,5]decan-2-yl)ethyl sulfamate], in the test with male ICR mice (setting [1]), the responders at 100 mg/kg is 33.3%.

In the case of `CC1(C)O[C@@H](COS(N)(=O)=O)[C@@H](c2ccccc2Cl)O1` [Example 162, ((4S, 5R)-5-(2-chlorophenyl)-2,2-dimethyl-1,3-dioxolan-4-yl)methyl sulfamate], the responders at 100 mg/kg with male ICR mice (setting [1]) is 100%. As for `CC1(C)O[C@@H](COS(N)(=O)=O)[C@H](c2ccc(Cl)cc2Cl)O1` [Example 40, ((4S, 5S)-5-(2,4-dichlorophenyl)-2,2-dimethyl-1,3-dioxolan-4-yl)methyl sulfamate], in the test on male ICR mice, the ED50 was determined as 49.2 mg/kg.

As for `Nc1ccccc1[C@@H]1OC2(CCCCC2)O[C@H]1COS(N)(=O)=O` [Example 74, ((2S, 3S)-3-(2-aminophenyl)-1,4-dioxaspiro[4,5]decan-2-yl)methyl sulfamate], the ED50 with male ICR mice is 14.5 mg/kg. Compared with the last compound, the ED50 is about 3.4-fold lower. Take `CCC1(CC)O[C@H](COS(N)(=O)=O)[C@@H](Cc2ccccc2)O1` [Example 124, ((4R, 5R)-5-benzyl-2,2-diethyl-1,3-dioxolan-4-yl)methyl sulfamate]: in the test with male ICR mice (setting [1]), the responders at 50 mg/kg was 100%. As for `Cc1ncsc1[C@@H]1OC(C)(C)O[C@H]1COS(N)(=O)=O` [Example 168, ((4S, 5R)-2,2-dimethyl-5-(4-methylthiazol-5-yl)-1,3-dioxolan-4-yl)methylsulfamate], in the test on male ICR mice (setting [1]), the responders at 100 mg/kg was 100%. The same compound yielded an ED50 in the test on male SD rats of 4.9 mg/kg.

The term ED50 denotes the dose at which the effect has come halfway, by size or by number of responders. Low readings indicate an effect at a small dose, high ones a need for a large dose.

These data come from patent US9937145B2, “Sulfamate derivative compound for use in preventing or treating epilepsy” (Bio-Pharm Solutions Co., Ltd., priority 2013, dated 2018).
